From BindingDB's records for doi:10.1016/j.bmc.2020.115887 (Duquesne University, 2021) come the findings set out here.

Each structure is given as a SMILES string.

As usually defined, the IC50 is the point on the concentration scale where inhibition reaches its midpoint.

This test can be described thus: Inhibition of beta3 Tubulin (unknown origin) expressed in human HeLa cell line assessed as inhibition of cell proliferation measured after 48 hrs by SRB method. On the technique in general: Sulforhodamine B stains cellular protein and so reports cell mass.
Consider `COc1ccc(N(C)c2nc(C)nc3c2CCC3)cc1`, for which the IC50 was determined as 9.6 nM.
To `COc1ccc(N(C)c2nc(C)nc3c2CCC3)c2ccccc12` belongs 180 nM.
As for `COc1cccc2cc(N(C)c3ncnc4c3CCC4)ccc12`, the IC50 was determined as 43 nM.
For `COc1cccc2cc(N(C)c3nc(N)nc4c3CCC4)ccc12` the value was 9.6 nM.
